Measured values: PubChem BioAssay (NCI)
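48-hour exposure; five concentrations; linearly interpolated endpoints. TGI denotes the concentration required for complete inhibition of growth.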

Columns and labels:
Assay in all cases: NCI tumour cell line growth inhibition, 48 h
DMS 114 small cell lung = system: DMS 114 small cell lung
KM20L2 colon = system: KM20L2 colon
LXFL 529 NSCLC = system: LXFL 529 NSCLC
HOP-18 NSCLC = system: HOP-18 NSCLC
P388/ADR leukemia = system: P388/ADR leukemia
SN12K1 renal = system: SN12K1 renal
SNB-78 CNS = system: SNB-78 CNS
XF 498 CNS = system: XF 498 CNS

Structure (SMILES) | TGI (DMS 114 small cell lung) [µM] | TGI (KM20L2 colon) [µM] | TGI (LXFL 529 NSCLC) [µM] | TGI (HOP-18 NSCLC) [µM] | TGI (P388/ADR leukemia) [µM] | TGI (SN12K1 renal) [µM] | TGI (SNB-78 CNS) [µM] | TGI (XF 498 CNS) [µM]
C[C@H](O)C(=O)SC[C@H](NC(=O)CC[C@@H](N)C(=O)O)C(=O)NCC(=O)O | > 100 | > 100 | > 100 |  |  |  |  | 
COc1c2ccoc2c(S(=O)(=O)Nc2ccc(Cl)cc2)c2oc(C)cc(=O)c12 | > 100 | > 100 |  | > 100 | > 100 | > 100 | > 100 | > 100
C=C1C(=O)OC2/C=C(\C)CC(O)/C=C(/CO)CC(OC(=O)/C(C)=C/C)C12 (stereo unspecified) | 30.5 | 246 |  | 49.7 | 240 | 76.6 | 319 | 37.2
NC1=NS(=O)(=O)Nc2nc(-c3cccs3)[nH]c21 |  | > 100 | > 100 | > 100 |  |  |  | 
FC(F)(F)C1=NC(=NNc2nnc(-c3ccccc3)c(-c3ccccc3)n2)N=C(C(F)(F)F)C1 | 28.2 | > 100 |  | > 100 | > 100 | > 100 | > 100 | > 88.5
CCCC(=O)OCC(O)CO (stereo unspecified) | > 5000 |  | > 5000 | > 5000 |  |  | > 5000 | 
